Reference: patent publication US20040077656A1, “Quinolines and nitrogenated derivatives thereof substituted in 4-position by a piperazine-containing moiety and their use as antibacterial agents” (priority 2000, published 2004)
Where a name gives a salt, the structure may show the parent alone. Read-outs that look alike come from different tables or passages of the source.

Test system: S. aureus Oxford, S. aureus WCUH29, S. pneumoniae 1629, S. pneumoniae N1387, S. pneumoniae ERY 2
Test: MIC of test compounds against various organisms
Type: cell-based
Procedure: The MIC (μg/ml) of test compounds against various organisms was determined: S. aureus Oxford, S. aureus WCUH29, S. pneumoniae 1629, S. pneumoniae N1387, S. pneumoniae ERY 2.

Row | MIC (against one or more of S. aureus Oxford, S. aureus WCUH29, S. pneumoniae 1629, S. pneumoniae N1387, S. pneumoniae ERY 2, read-out: MIC) [µg/mL] | SMILES | MIC [µg/mL]
1 | < 1 | COc1ccc2nccc([C@@H](O)CN3CCN(CCNC(=O)c4cccs4)CC3)c2c1 [Example 7, Thiophene-2-carboxylic acid (2-{14[(R)-2-hydroxy-2-(6-methoxy-quinolin-4-yl)-ethyl]-piperazin-1-yl}-ethyl)-amide Dioxalate Salt] | –
2 | – | COc1ccc2nccc([C@@H](O)CN3CCN(CCCCc4ccccc4)CC3)c2c1 [Example 12, (R)-1-(6-Methoxy-quinolin-4-yl)-2-[4-(4-phenyl-butyl)piperazin-1-yl]-ethanol Dioxalate] | < 1
